SMILES strings stand for the structures. ≈ marks a conversion by molar mass, not a printed value. *1 amine or outer side, *2 acyl side, *3 side chain or, on linkers, in order; H or OH if unused. Where a SMILES comes first, the peptide text is derived from it. Bridges are numbered along the chain shown (N, C = ends). [ ]: non-standard residue; d: D form. The star is where a group is joined. ξ: configuration not given here. Dab(3ξ-OH) = O=C([C@@H](N[*:1])C(O)CN[*:3])[*:2]; Decanoyl(3ξ-OH) = CCCCCCCC(O)CC(=O)*; X1 = C/C=C(/N[*:1])C(=O)[*:2]; Decanoyl = CCCCCCCCCC(=O)*; Dab = NCC[C@H](N)C(=O)O

One assay deals with A. caviae CIP 7616. Type of assay: cell-based, Aeromonas caviae. The settings on record: broth microdilution, 0.1 to 100 µM, 1.10^6 UFC/mL, 48 h, read by unaided eye. As for the experimental part:
(§1) Antibacterial activity was assayed against a panel of micro-organisms including human and aquaculture pathogenic bacterial species. MICs were performed and defined according to internationally recognized standards (CLSI [21]). Polymyxin B (PMB), an antibiotic CLP produced by Paenibacillus polymyxa, was used as positive control. The major produced alterins, i.e., alt_952, alt_954, alt_970 and alt_980 were assayed against the whole panel of target cells while the minor ones were only tested against a few bacterial strains (Table 2).
(§2) The bacterial strains Aeromonas caviae CIP 7616, Aeromonas hydrophila CIP 7614, Escherichia coli ML35, Escherichia coli SBS 363, Salmonella enterica CIP 8297 and Yersinia ruckeri ATCC 29473 were grown in Tryptic Soy Broth. The marine bacterial strains Vibrio crassostreaeJ2–9, Vibrio tasmaniensisLGP32, Vibrio tapetis CECT 4600 were grown in Marine Broth. All of them were cultivated at optimal temperature according to ATCC and CIP specifications. The strain Vibrio parahaemolyticus13-028A/3 was grown at 28 °C in Tryptic Soy Broth supplemented in NaCl (20 g.L^−1) according to [47]. The strains Pseudoalteromonas sp. hCg-6 and hCg-42 were cultured using a synthetic medium containing: 17.11 g sucrose, 30 g sea salts (Sigma-S9883), 7.6 g K2HPO4, 3 g KH2PO4 and 20 mL MEM 50X (Dulbecco) per liter. The cultures were grown at 18 °C for 72 h with shaking (100 rpm).
(§3) MICs were determined using broth microdilution method according to [21]. To resume, antibacterial compounds ranging from 0.1 to 100 µM were assayed against the target bacteria in mid-logarithmic phase culture (1.10^6 UFC.mL^−1) in adapted culture medium according to the strain. MICs were examined by unaided eye after a 48h-incubation time at the optimal temperature growth. The lipopeptide PMB (Sigma-P4932) was used as antibiotic control.

The next assay has as its system E. coli ML35. Type of assay: cell-based, Escherichia coli. The conditions noted are these: E. coli ML35 (long-chain LPS); broth microdilution, 0.1 to 100 µM, 1.10^6 UFC/mL, 48 h, read by unaided eye. As for the experimental part: as §1, §2, §3
The next assay relates to E. coli SBS363. Type of assay: cell-based, Escherichia coli. The settings on record: E. coli SBS363 (short-chain LPS); broth microdilution, 0.1 to 100 µM, 1.10^6 UFC/mL, 48 h, read by unaided eye. As to the method:
as §1, §2, §3

A further assay concerns P. aeruginosa ATCC 27853. Type of assay: cell-based, Pseudomonas aeruginosa. The settings on record: P. aeruginosa ATCC 27853; broth microdilution, 0.1 to 100 µM, 1.10^6 UFC/mL, 48 h, read by unaided eye. As for the experimental part: as §1, §3
Another assay has as its system Pseudoalteromonas hCg-42. Type of assay: cell-based, Pseudoalteromonas sp. The conditions noted are these: Pseudoalteromonas hCg-42 (producing strain); broth microdilution, 0.1 to 100 µM, 1.10^6 UFC/mL, 48 h, read by unaided eye. As to the method: as §1, §2, §3
The test system of the next assay is Pseudoalteromonas hCg-6. The class given is cell-based, Pseudoalteromonas sp. The settings on record: Pseudoalteromonas hCg-6 (producing strain); broth microdilution, 0.1 to 100 µM, 1.10^6 UFC/mL, 48 h, read by unaided eye. As to the method: as §1, §2, §3
A further assay relates to S. enterica CIP 8297. Type of assay: cell-based, Salmonella enterica. The settings on record: broth microdilution, 0.1 to 100 µM, 1.10^6 UFC/mL, 48 h, read by unaided eye. As for the experimental part:
as §1, §2, §3

Assay [1] relates to V. parahaemolyticus 13-028A/3. The class given is cell-based, Vibrio parahaemolyticus. The settings on record: broth microdilution, 0.1 to 100 µM, 1.10^6 UFC/mL, 48 h, read by unaided eye. As for the experimental part: as §1, §2, §3
A further assay deals with V. tapetis CECT 4600T. The class given is cell-based, Vibrio tapetis. The settings on record: V. tapetis CECT 4600T; broth microdilution, 0.1 to 100 µM, 1.10^6 UFC/mL, 48 h, read by unaided eye. As to the method: as §1, §2, §3
For another assay, the system named is V. tasmaniensis LGP 32. The class given is cell-based, Vibrio tasmaniensis. The conditions noted are these: V. tasmaniensis LGP 32; broth microdilution, 0.1 to 100 µM, 1.10^6 UFC/mL, 48 h, read by unaided eye. As to the method:
as §1, §2, §3

The test system of a further assay is Y. ruckeri ATCC 29473. Type of assay: cell-based, Yersinia ruckeri. The settings on record: Y. ruckeri ATCC 29473; broth microdilution, 0.1 to 100 µM, 1.10^6 UFC/mL, 48 h, read by unaided eye. As to the method: as §1, §2, §3
The next assay has as its system V. tasmaniensis LGP32. The assay is described as follows: Viability (cultivability, CFU count) in seawater. The class given is cell-based, Vibrio tasmaniensis. The settings on record: 20 µM, 4 h incubation in sterile seawater, inoculum 1.10^6 UFC/mL, plated in duplicate. As for the experimental part: As a first step, we have measured the antimicrobial activity of alt_952, alt_954, alt_970 and alt_980 against V. tasmaniensis LGP32 in seawater after a 4 hour-long incubation. […] The effects on membrane were also investigated under the same experimental conditions using live/dead bacterial viability kit for flow cytometry (Figure 6). A net cultivability loss of V. tasmaniensis (2-log reduction) was observed when incubated with alt_954 and alt_980 indicative of a bactericidal effect (Figure 7A). In these conditions, V. tasmaniensis was much less affected by alt_970 (1-log reduction) and not by alt_952 (Figure 7A).
[…] After a 4 h-long incubation, viable bacteria were counted. Diluted samples (50 µL) in sterile seawater were spread in duplicate on appropriate medium. Cultivable bacterial concentration (CFU mL^−1) was determined after overnight incubation at optimal growth temperature.

A short description of assay [2]: LPS binding, surface plasmon resonance (Biacore). Set-up: species or system Escherichia coli. The settings on record: CLPs immobilized (500–600 RU) on CM5 chip, titrated with LPS, 25 °C, 10 mM Hepes pH 7.4, 150 mM NaCl, 3 mM EDTA. From the text:
(§4) To gain insights into LPS-alterin interactions, we used an endotoxin detection assay, the QCL-1000^TM Endpoint chromogenic Limulus Amoebocyte Lysate (LAL) assay (Lonza). We compared alt_954, alt_970 and alt_980 for their ability to bind LPS from E. coli O111:B4. All alterins bound to LPS in a dose-dependent manner, as indicated by the reduction of biologically active LPS with increasing alterins concentrations (Figure 4A). […] To examine alterin LPS-binding properties in more detail, we performed a surface plasmon resonance (SPR) assay using the Biacore technology (GE Healthcare). The SPR binding measurements were performed using the alt_954 and alt_970. PMB was used as a positive control. The CLPs were immobilized to a CM5 sensor chip surface and titrated with LPS. […] The dose-dependent effect observed (Figure 4B) highlights the LPS-binding properties of the alterins. Both LPS-binding assays, i.e., LAL and SPR, are fully agreeing for alt_954. Moreover, the LPS-binding properties of alterins followed the same general pattern as that of antibacterial activity.
Surface plasmon resonance experiments were carried out at 25 °C using a BIACORE 3000 apparatus (GE Healthcare, Uppsala, Sweden). […] The binding level in RU was measured at the end of the binding after normalization to the same CLP coated level.

A further assay deals with A. hydrophila CIP 7614. Type of assay: cell-based, Aeromonas hydrophila. The settings on record: A. hydrophila CIP 7614; broth microdilution, 0.1 to 100 µM, 1.10^6 UFC/mL, 48 h, read by unaided eye. As for the experimental part: as §1, §2, §3
The subject of a further assay is V. harveyi ORM4. The class given is cell-based, Vibrio harveyi. The conditions noted are these: V. harveyi ORM4; broth microdilution, 0.1 to 100 µM, 1.10^6 UFC/mL, 48 h, read by unaided eye. As for the experimental part:
as §1, §3

Assay [3] is described as follows: LPS binding, QCL-1000 chromogenic Limulus Amoebocyte Lysate (LAL) assay. The arrangement: species or system Escherichia coli. The conditions noted are these: LPS 1 EU/mL pre-incubated with CLPs 0.01 to 10 µM, 15 min, 37 °C.
Description: as §4
The CLPs were assayed for their LPS-binding properties by using the QCL-1000 Limulus Amoebocyte Lysate kit (LAL-Lonza, Bâle, Switzerland) according to manufacturer instructions. […] Free LPS was then quantified according to the manufacturer’s instructions. […]

Regarding `C/C=C1/NC(=O)[C@@H](NC(=O)CC(O)CCCCCCC)C(O)CNC(=O)[C@H](C(O)CN)NC(=O)[C@H](C(O)CN)NC(=O)[C@H](CCCNC(=N)N)NC(=O)[C@H](CC(C)C)NC(=O)[C@H](CCN)NC1=O` (stereo partly shown) [alt_970] ({Decanoyl(3ξ-OH)}-[Dab(3ξ-OH)][X1][Dab]LR[Dab(3ξ-OH)][Dab(3ξ-OH)]; lactam 1-C), the MIC with A. caviae CIP 7616 is on record as 17.6 µM (≈ 17.1 µg/mL); in the assay with E. coli ML35, 35 µM (≈ 34 µg/mL); in the assay on E. coli SBS363, 0.1 µM (≈ 0.0971 µg/mL); with P. aeruginosa ATCC 27853, 35.2 µM (≈ 34.2 µg/mL); with Pseudoalteromonas hCg-42 it was greater than 100 µM; with Pseudoalteromonas hCg-6, greater than 100 µM. In addition, the MIC against S. enterica CIP 8297 is reported as 1.1 µM (≈ 1.07 µg/mL); in [1], 6.25 µM (≈ 6.07 µg/mL); with V. tapetis CECT 4600T, greater than 100 µM; in the assay on V. tasmaniensis LGP 32 it was 8.8 µM (≈ 8.55 µg/mL); in the assay on Y. ruckeri ATCC 29473, 1.1 µM (≈ 1.07 µg/mL). Besides, the “cultivability loss of V. tasmaniensis (log reduction of CFU)” value with V. tasmaniensis LGP32 was 1 log. Besides, the “LPS binding response (SPR, RU)” value in [2] is listed as “the response was halved”.

For the compound `C/C=C1/NC(=O)[C@@H](NC(=O)CCCCCCCCC)C(O)CNC(=O)[C@H](C(O)CN)NC(=O)[C@H](C(O)CN)NC(=O)[C@H](CCCNC(=N)N)NC(=O)[C@H](CC(C)C)NC(=O)[C@H](CCN)NC1=O` (stereo partly shown) [alt_954] (Decanoyl-[Dab(3ξ-OH)][X1][Dab]LR[Dab(3ξ-OH)][Dab(3ξ-OH)]; lactam 1-C), the MIC against A. caviae CIP 7616 is given as 5.5 µM (≈ 5.25 µg/mL); against A. hydrophila CIP 7614, 2.7 µM (≈ 2.58 µg/mL); in the assay on E. coli ML35, 1.4 µM (≈ 1.34 µg/mL); in the assay on E. coli SBS363, 0.2 µM (≈ 0.191 µg/mL); against P. aeruginosa ATCC 27853 it was 22 µM (≈ 21 µg/mL); against Pseudoalteromonas hCg-42 it was greater than 100 µM. The MIC is greater than 100 µM against Pseudoalteromonas hCg-6; 0.7 µM (≈ 0.669 µg/mL) in the assay on S. enterica CIP 8297; 1.4 µM (≈ 1.34 µg/mL) against V. harveyi ORM4; 6.25 µM (≈ 5.97 µg/mL) in [1]; greater than 100 µM against V. tapetis CECT 4600T; 2.7 µM (≈ 2.58 µg/mL) against V. tasmaniensis LGP 32. Further, the minimal inhibitory concentration (MIC) in the assay on Y. ruckeri ATCC 29473 was 0.3 µM (≈ 0.287 µg/mL). For the same compound, in the assay with V. tasmaniensis LGP32, the “cultivability loss of V. tasmaniensis (log reduction of CFU)” value was found to be 2 log. Moreover, in assay [3], the “LPS binding (reduction of biologically active LPS, LAL assay)” value was “more efficiently than alt_970”.

For the origin of these results see article PMC7764243, “Alterins Produced by Oyster-Associated Pseudoalteromonas Are Antibacterial Cyclolipopeptides with LPS-Binding Activity” (Marine Drugs, 2020).
